Our source for the IC50, EC50 and Activity values is ChEMBL document CHEMBL3774354, “Discovery of Selective Histone Deacetylase 6 Inhibitors Using the Quinazoline as the Cap for the Treatment of Cancer” (J Med Chem, 2016).

One data set addresses Histone deacetylase 1 (Homo sapiens, UniProt Q13547).
The target of data set [1] is T1, Protein deacetylase HDAC6 (Homo sapiens, UniProt Q9UBN7).
T1 sequence (Q9UBN7 whole entry): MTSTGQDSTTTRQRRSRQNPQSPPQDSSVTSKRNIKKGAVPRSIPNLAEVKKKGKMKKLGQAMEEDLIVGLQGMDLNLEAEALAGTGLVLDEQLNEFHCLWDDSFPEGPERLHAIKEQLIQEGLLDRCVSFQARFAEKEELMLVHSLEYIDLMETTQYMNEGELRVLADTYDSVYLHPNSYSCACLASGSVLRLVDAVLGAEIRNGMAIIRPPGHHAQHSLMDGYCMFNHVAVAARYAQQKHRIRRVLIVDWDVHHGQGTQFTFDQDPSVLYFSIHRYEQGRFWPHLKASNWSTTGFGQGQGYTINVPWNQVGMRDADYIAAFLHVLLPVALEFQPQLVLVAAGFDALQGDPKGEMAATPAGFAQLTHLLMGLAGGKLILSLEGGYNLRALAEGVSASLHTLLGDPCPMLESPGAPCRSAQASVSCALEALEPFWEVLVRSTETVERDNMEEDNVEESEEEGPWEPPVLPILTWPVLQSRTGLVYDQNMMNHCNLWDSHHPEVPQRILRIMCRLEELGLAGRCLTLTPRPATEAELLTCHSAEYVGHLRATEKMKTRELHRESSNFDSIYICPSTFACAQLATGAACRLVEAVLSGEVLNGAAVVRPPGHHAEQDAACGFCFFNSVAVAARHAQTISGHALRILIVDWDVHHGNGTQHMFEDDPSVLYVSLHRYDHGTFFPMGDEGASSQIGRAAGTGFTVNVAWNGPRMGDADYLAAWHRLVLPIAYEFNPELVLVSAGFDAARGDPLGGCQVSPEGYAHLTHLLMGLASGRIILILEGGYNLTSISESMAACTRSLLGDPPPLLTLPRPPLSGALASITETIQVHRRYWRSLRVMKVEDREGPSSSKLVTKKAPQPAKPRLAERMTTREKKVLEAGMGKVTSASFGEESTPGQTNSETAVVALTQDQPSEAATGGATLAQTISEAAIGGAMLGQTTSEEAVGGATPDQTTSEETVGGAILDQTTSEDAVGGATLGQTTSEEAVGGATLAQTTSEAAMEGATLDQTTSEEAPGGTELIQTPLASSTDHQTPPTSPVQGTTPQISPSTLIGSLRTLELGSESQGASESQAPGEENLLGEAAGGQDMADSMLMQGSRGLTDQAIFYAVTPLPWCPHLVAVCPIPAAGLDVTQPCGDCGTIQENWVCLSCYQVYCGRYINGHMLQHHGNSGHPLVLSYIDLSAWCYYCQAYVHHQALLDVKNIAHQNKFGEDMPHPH
Description: Inhibition of human recombinant HDAC6 using AMC labeled AC-peptide as substrate incubated for 1 hr by fluorescence analysis

In a further data set the target is T2, Histone deacetylase 8 (Homo sapiens, UniProt Q9BY41).
T2 sequence (Q9BY41 whole entry): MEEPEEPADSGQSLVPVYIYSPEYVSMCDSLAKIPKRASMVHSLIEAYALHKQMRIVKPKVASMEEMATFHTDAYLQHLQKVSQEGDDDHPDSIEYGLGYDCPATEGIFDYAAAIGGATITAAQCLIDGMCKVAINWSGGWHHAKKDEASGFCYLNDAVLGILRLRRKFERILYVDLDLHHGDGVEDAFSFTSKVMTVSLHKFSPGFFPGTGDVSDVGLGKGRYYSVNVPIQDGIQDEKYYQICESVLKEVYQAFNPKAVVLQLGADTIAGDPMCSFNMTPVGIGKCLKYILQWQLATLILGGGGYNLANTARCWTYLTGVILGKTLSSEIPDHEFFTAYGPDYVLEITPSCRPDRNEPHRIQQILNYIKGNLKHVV

For data set [2], the target named is T1, Protein deacetylase HDAC6. As to the kind of experiment: Inhibition of HDAC6 in human HeLa cells assessed as induction of tubulin acetylation incubated for 6 hrs by cytoblot assay. It counts as cell-based.
The subject of data set [3] is HeLa. As to the kind of experiment: Induction of histone H3 acetylation in human HeLa cells incubated for 6 hrs by cytoblot assay. It counts as functional, cell-based.
In the next data set the test system is A-375. Kind of data set: Antiproliferative activity against human A375 cells after 72 hrs by MTT assay. It is filed as functional, cell-based. The following applies: A-375, 72 h.
Data set [4] concerns HeLa. Kind of data set: Antiproliferative activity against human HeLa cells after 72 hrs by MTT assay. It is filed as functional, cell-based.
The test system of data set [5] is Mus musculus. Kind of data set: Toxicity in NOD/SCID mouse xenografted with human MV4-11 cells assessed as death at 50 mg/kg, ip q2d for 12 days. To be noted: in vivo, 288 h. It is filed as organism-based.
The test system of data set [6] is Mus musculus. As to the kind of experiment: Toxicity in Balb/c nude mouse xenografted with human HCT116 cells assessed as death at 50 mg/kg, ip q2d for 9 days. To be noted: in vivo, 216 h. It counts as organism-based, HCT-116.
Data set [7] concerns Mus musculus. As to the kind of experiment: Toxicity in Balb/c nude mouse xenografted with human HCT116 cells assessed as death at 100 mg/kg, po q2d for 8 days. To be noted: in vivo, 192 h. It counts as organism-based, HCT-116.
Another data set concerns MV4-11. Kind of data set: Antitumor activity against human MV4-11 cells xenografted in NOD/SCID mouse assessed as tumor mass change at 50 mg/kg, ip q2d for 12 days. It counts as functional.
Data set [8] is described as follows: Antitumor activity against human HCT116 cells xenografted in Balb/c nude mouse assessed as tumor mass change at 50 mg/kg, ip q2d for 9 days. It counts as functional, HCT-116.
Data set [9] can be described thus: Antitumor activity against human HCT116 cells xenografted in Balb/c nude mouse assessed as tumor mass change at 100 mg/kg, po q2d for 8 days. It counts as functional, HCT-116.
Data set [10] concerns Mus musculus. As to the kind of experiment: Toxicity in Balb/c nude mouse xenografted with human HCT116 cells assessed as change in body weight at 50 mg/kg, ip q2d for 9 days. It is filed as organism-based, HCT-116. To be noted: in vivo, 216 h.
The test system of data set [11] is Mus musculus. Kind of data set: Toxicity in Balb/c nude mouse xenografted with human HCT116 cells assessed as change in body weight at 100 mg/kg, po q2d for 8 days. It is filed as organism-based, HCT-116. The following applies: in vivo, 192 h.

Chain of Histone deacetylase 1 (Q13547 whole entry): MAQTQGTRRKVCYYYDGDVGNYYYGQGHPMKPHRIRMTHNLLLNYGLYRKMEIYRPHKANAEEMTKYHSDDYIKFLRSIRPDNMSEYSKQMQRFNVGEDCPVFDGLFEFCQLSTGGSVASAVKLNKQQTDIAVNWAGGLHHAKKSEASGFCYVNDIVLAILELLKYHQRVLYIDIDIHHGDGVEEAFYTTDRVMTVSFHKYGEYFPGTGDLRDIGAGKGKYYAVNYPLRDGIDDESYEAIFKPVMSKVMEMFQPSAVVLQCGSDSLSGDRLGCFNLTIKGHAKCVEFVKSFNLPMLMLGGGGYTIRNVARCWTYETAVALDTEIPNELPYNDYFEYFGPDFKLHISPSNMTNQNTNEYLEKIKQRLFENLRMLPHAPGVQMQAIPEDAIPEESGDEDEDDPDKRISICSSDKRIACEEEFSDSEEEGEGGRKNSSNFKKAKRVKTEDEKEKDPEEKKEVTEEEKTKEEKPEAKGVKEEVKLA
Description for Histone deacetylase 1: Inhibition of human recombinant HDAC1 using AMC labeled AC-peptide as substrate incubated for 1 hr by fluorescence analysis
Description for Histone deacetylase 8: Inhibition of human recombinant HDAC8 using AMC labeled AC-peptide as substrate incubated for 1 hr by fluorescence analysis

Turning to `Cc1nc(N(C)c2cccc(OCCCCCC(=O)NO)c2)c2ccccc2n1`, the values for the IC50 (against Histone deacetylase 1; in data set [1]; at Histone deacetylase 8) were 73 nM, over 1000 nM and over 1000 nM, respectively.
On to `Cc1nc(N(C)c2cccc(OCCCC(=O)NO)c2)c2ccccc2n1`, for which the IC50 (at Histone deacetylase 1; in data set [1]; on Histone deacetylase 8) was over 1000 nM each time.
In the case of `CN(c1ccc(OCC(=O)NO)cc1)c1ncnc2ccccc12`, the concentration giving a half-maximal response (EC50) stood at 49.4 nM in [2] and 1260 nM in the data set with HeLa [3]. Moreover, the IC50 with A-375 was determined as 432 nM; with HeLa [4] it was 379 nM; on Histone deacetylase 1, 242 nM; in data set [1], 14 nM; at Histone deacetylase 8, 1420 nM.
For `Cc1nc(N(C)c2cccc(OCC(=O)NO)c2)c2ccccc2n1`, the IC50 (against Histone deacetylase 1; in data set [1]; at Histone deacetylase 8) was over 1000 nM each time.
Regarding `O=C(CCCCCCC(=O)Nc1ccccc1)NO` [VORINOSTAT], the Activity result is “Non-toxic” in the data set on Mus musculus [5]; “Non-toxic” in the data set with Mus musculus [6]; “Non-toxic” in the data set on Mus musculus [7]; 0% in the data set with MV4-11; 36.6% in [8]; 59.2% in data set [9]. Also, the results for the Activity in the data set with Mus musculus [10] and with Mus musculus [11] were -3% and -6.1%, respectively.
Consider `Cc1nc(N(C)c2ccc(OCC(=O)NO)cc2)c2ccccc2n1`, for which the EC50 in data set [2] was determined as 26.2 nM; in the data set on HeLa [3], 456 nM. Further, the IC50 in the data set with A-375 is 213 nM; in the data set on HeLa [4] it was 171 nM.
With `COc1ccc(N(C)c2nc(C)nc3ccccc23)cc1OCC(=O)NO`, the IC50 (at Histone deacetylase 1; in [1]; against Histone deacetylase 8) was over 1000 nM each time.
Consider `Cc1nc2c(c(N(C)c3ccc(OCCCC(=O)NO)cc3)n1)CCC2`, for which the results for the half-inhibitory concentration (IC50) (at Histone deacetylase 1; in data set [1]; against Histone deacetylase 8) were 195 nM, 40 nM and 6190 nM, respectively.
The like results for `COc1ccc(Nc2nc(C)nc3ccccc23)cc1OCCCC(=O)NO` were, in that order, over 1000 nM, over 1000 nM and over 1000 nM.
